Results: patent US4202941A, “Glycerol oxidase and process for the production thereof and method for the quantitative determination of glycerol by glycerol oxidase” (Kyowa Hakko Kogyo, Co. Ltd., priority 1977, dated 1980)
Where two headings read alike, the source gives them in different places.

Tests used:
[1] = system: Enzyme of the genus Aspergillus (glycerol oxidase); assay: Inhibition of enzyme activity by 1 mM inhibitors (4-AA method); type: biochemical, Aspergillus japonicus KY-45; parameters: key: % of activity without inhibitor (no inhibitor = 100)
Method: (§1) The enzyme activity is expressed by "unit." A "unit" of the enzyme activity is defined as that amount of enzyme which will decompose 1μ mole of glycerol at 37° C. in 1 minute in the presence of oxygen. The determination of the enzyme activity is carried out as follows: glycerol is reacted with glycerol oxidase with stirring to form hydrogen peroxide, and 4-aminoantipyrine and phenol are reacted with the resulting hydrogen peroxide in the presence of peroxidase to derive quinoneimine pigment. The optical density at 500 nm of the resulting quinoneimine pigment is measured to determine the amount of generated hydrogen peroxide, whereby the enzyme activity is determined (which will be hereinafter referred to as "4-AA method").
(§2) Enzymes activities obtained by adding 1 mM of various inhibitors are shown in Table 1, the activity of the enzyme with no addition of the inhibitor being defined as 100. The activities are measured according to 4-AA method deriving a pigment of 4-aminoantipyrine system from the generated H2 O2.
(§3) Enzymological and physico-chemical properties of glycerol oxidase thus obtained are described below (as glycerol oxidase, the respective purified preparates obtained in Examples 1 and 2, are used).
(§4) Determination of the enzyme activity is carried out by reacting hydrogen peroxide generated by the enzyme with 4-aminoantipyrine and phenol in the presence of peroxidase to obtain quinoneimine pigment, and quantitatively determining the resulting quinoneimine pigment.
(§5) The reagents (1)-(6) are mixed in a test tube, and then shaken at 37° C. for 5 minutes. Then, enzyme solution is added thereto, and thus obtained mixture is made up to 3 ml with ammonium buffer solution. Reaction is carried out at 37° C. for 10 minutes with shaking. On the other hand, similar procedure is repeated using water in place of the test solution as a reference. The optical density of the reaction solution at 500 nm is measured, and a difference from the control is determined as Δ OD (optical density).
(§6) On the other hand, the absorption coefficient of 0.5 mM of quinoneimine pigment is reported as 5.33 [Clin. Chem. 20, 470 (1974)], and thus, if the optical density (Δ OD) at 500 nm of 3 ml of the reaction solution obtained according to the foregoing operational procedure IV-(c) is represented by a, the desired enzyme activity (A) per milliliter of the enzyme solution is calculated from the following formula: [formula]

[2] = system: Enzyme of the genus Neurospora (glycerol oxidase); assay: Substrate specificity, relative activity by 4-AA method; type: biochemical, Neurospora crassa KY-462; conditions: substrate equimolar to glycerol
Method: as §1, §3
(§7) The relative activity is measured using other substrates in equimolar amounts to that of glycerol in the procedure for measuring the activity according to 4-AA method.
(§8) The relative activities on other substrates are given in Table 3, the activity on glycerol being defined as 100.
as §5

[3] = system: Enzyme of the genus Aspergillus (glycerol oxidase); assay: as above; type: biochemical, Aspergillus japonicus KY-45; conditions: substrate equimolar to glycerol
Method: as §1, §3, §7, §8, §5

[4] = system: Enzyme of the genus Neurospora (glycerol oxidase); assay: Inhibition of enzyme activity by 1 mM inhibitors (4-AA method); type: biochemical, Neurospora crassa KY-462; parameters: key: % of activity without inhibitor (no inhibitor = 100)
Method: as §1, §2, §3, §4, §5, §6

[5] = 1 mM inhibitor, Enzyme of the genus Aspergillus, 4-AA method
[6] = 1 mM inhibitor, Enzyme of the genus Neurospora, 4-AA method

SMILES	Enzyme activity on adding inhibitor (activity with no inhibitor defined as 100) [1, 5]	Relative activity on substrate (activity on glycerol defined as 100) [2]	Relative activity on substrate (activity on glycerol defined as 100) [3]	other results
O[C@H](CS)[C@H](O)CS (racemic) [dithiothreitol]	100			
c1cnc2c(c1)ccc1cccnc12 [0-phenanthroline]	90			
CC(O)CO (stereo not shown) [1,2-propanediol]		0	10.5	
CC(O)CCO (stereo not shown) [1,3-butanediol]		0	2.0	
OCCCO [1,3-propanediol]		0	3.3	
OCCCCO [1,4-butanediol]		0	0.3	
CC(O)C(C)O (stereo not shown) [2,3-butanediol]		0	0.3	
Oc1cccc2cccnc12 [8-hydroxyquinoline]				Enzyme activity on adding inhibitor (activity with no inhibitor defined as 100) [1]: 90
O=[N+]([O-])[O-].[Ag+] [AgNO3]	30			
O=S(=O)([O-])[O-].[Cu+2] [CuSO4]	10			Enzyme activity on adding inhibitor (activity with no inhibitor defined as 100) [4, 6]: 20
O=C(O)CN(CCN(CC(=O)O)CC(=O)O)CC(=O)O [EDTA]				Enzyme activity on adding inhibitor (activity with no inhibitor defined as 100) [1]: 105; Enzyme activity on adding inhibitor (activity with no inhibitor defined as 100) [4, 6]: 80
O=S(=O)([O-])[O-].[Fe+2] [FeSO4]				Enzyme activity on adding inhibitor (activity with no inhibitor defined as 100) [4, 6]: 0
O=P(O)(O)OCC(O)CO (stereo not shown) [Glycerol-3-phosphoric acid]		21	0.4	
[Cl][Hg][Cl] [HgCl2]	20			Enzyme activity on adding inhibitor (activity with no inhibitor defined as 100) [4, 6]: 23
CCN1C(=O)C=CC1=O [N-ethylmaleimide]	100			
Cl.NO [NH2 OH--HCl]	0			Enzyme activity on adding inhibitor (activity with no inhibitor defined as 100) [4, 6]: 0
[N-]=[N+]=[N-].[Na+] [NaN3]	20			
O=C(O)c1cc[c]([Hg][Cl])cc1 [PCMB, p-chloromercuribenzoate]	50			Enzyme activity on adding inhibitor (activity with no inhibitor defined as 100) [4, 6]: 108
CC(=O)[O-].CC(=O)[O-].[Pb+2] [Pb(CH3 COO)2]	15			
O=S(=O)([O-])[O-].[Zn+2] [ZnSO4]				Enzyme activity on adding inhibitor (activity with no inhibitor defined as 100) [4, 6]: 23
N[C@@H](CS)C(=O)O [cysteine]				Enzyme activity on adding inhibitor (activity with no inhibitor defined as 100) [4, 6]: 60
CCO [ethanol]		0	0	
OCC(O)CO [glycerol]		100	100	
O=C(O)CI [iodoacetate]				Enzyme activity on adding inhibitor (activity with no inhibitor defined as 100) [4]: 100
CC(C)O [isopropyl alcohol]		0	0	
CCCO [n-propyl alcohol]		0	0	
Cc1ccc2ccc3ccc(C)nc3c2n1 [neocuproine]	100			
c1ccc(-c2ccccn2)nc1 [α,α'-dipyridyl]	85			
